System: anti-diacetoxyscirpenol monoclonal antibody secreted by hybridoma cell strain DAS5G11E7
Assay type: binding, mouse

| Compound | Cross reactivity |
| --- | --- |
| C[C@@H]1Cc2c(Cl)cc(C(=O)N[C@@H](Cc3ccccc3)C(=O)O)c(O)c2C(=O)O1 [OTA, ochratoxin] | <0.01% |
| CC1=CC2O[C@@H]3[C@H](O)C[C@](C)(C2(CO)C(O)C1=O)[C@]31CO1 (stereo partly shown) [DON, vomitoxin] | <0.01% |
| 3-acetyldeoxynivalenol [3-acetyl-DON] | <0.01% |
| HT-2 toxin | <0.01% |
